# Values quoted from earlier work, collected in US20110251396A1, “Enantiomeric compositions of cicletanine, alone and in combination with other agents, for the treatment of disease” (Gilead Sciences, Inc., priority 2003, published 2011).
# Where two headings read alike, the source gives them in different places.
# Legend:
# [1] = test system: T-type voltage-gated plasma membrane calcium channels
# [2] = test system: patients with type 2 diabetes
# hypertensives = conditions: fell from 128; 150-200 mg/day cicletanine, over 12 months
# Dahl salt-sensitive rats = conditions: cicletanine treatment
# [3] = test system: patients whose blood pressure had not been normalized; conditions: cicletanine 50 and 100 mg per day added; all three groups
structure (smiles),measurement,setting,value
COCC(=O)O[C@]1(CCN(C)CCCc2nc3ccccc3[nH]2)CCc2cc(F)ccc2[C@@H]1C(C)C [mibefradil],selectivity for blocking T-type over L-type calcium channels,[1],10 to 50 times
CN(C)C(=N)N=C(N)N [Metformin],patients with gastrointestinal side effects,"[2]; diarrhea, nausea, abdominal pain, metallic taste",20% to 30%
same,weight loss,[2]; first 6 months of treatment,2 to 3 kg
same,decrease of low-density lipoprotein (LDL) cholesterol levels,[2]; monotherapy,10% to 15%
same,decrease of plasma triglyceride levels,[2]; monotherapy,10% to 15%
CCCCNC(=O)NS(=O)(=O)c1ccc(C)cc1 [tolbutamide],peak insulin response to tolbutamide,"single intravenous dose of tolbutamide alone, before cicletanine administration",29.2 mU/L
Cc1ncc2c(c1O)COC2c1ccc(Cl)cc1 (racemic) [cicletanine],average triglyceride levels,hypertensives,104 mg/dL
same,high-density lipoprotein (HDL) cholesterol,Dahl salt-sensitive rats,increased
same,low-density lipoprotein (LDL) cholesterol,Dahl salt-sensitive rats,significantly decreased
same,patients with normalized blood pressure,[3],50%
same,hypoglycemic effect of tolbutamide,following 7 days of cicletanine 100 mg per day,did not change
same,peak insulin response to tolbutamide,single intravenous dose of tolbutamide following 7 days of cicletanine 100 mg per day,17.4 mU/L
